Test results taken from US20140100138A1, “MECHANICAL STRESS RESPONSE ANALYSIS OF CELLS AND TISSUES” (The Regents of The University of California, priority 2012, published 2014).

Experiments:
HUVECs [1] = assay: 96-well plate screen of microtsunami-generated Ca2+ signaling, percentage of cells signaling 100-150 μm from μCB center; assay type: cell-based, human; details: 96-well screen; for effect on microtsunami-induced Ca2+ signaling in Ca2+ containing media: HHBSS+ with 2 g/L D-glucose, FIG. 9D columns 8-10; for effect on microtsunami-induced Ca2+ signaling in Ca2+ free media: HHBSS- with 3 mM EGTA, 2-APB 10-100 μM, PP2 10 μM, Verapamil 50 nM, FIG. 9D columns 1-5
Procedure: 96 well plates (Invitro-Scientific) were coated with fibronectin and P4 HUVECs were plated in each well. […] DMSO was also added as a control corresponding to the highest amount added from solution of the drugs, 0.3%. The first seven columns contained the previously used HHBSS- with 3 mM EGTA and the last five columns contained HHBSS+ supplemented with 2 g/L D-glucose.
The experiments were performed in a 96-well plate where twelve conditions, each with eight replicates, were tested for their potential effect on μTsunami generated Ca^2+ signaling.

[2] = 2-APB 10 μM, 30 μM or 100 μM; cited from earlier work
HUVECs [3] = assay: Cell lysate / ATP control experiments for Ca2+ signaling with and without microtsunami exposure; assay type: cell-based, human
Procedure: HUVECs grown in a tissue culture flask at full confluency were resuspended in standard HBSS- at a concentration of 1.5×10^7 cells/mL. Cell lysate solution was prepared by subjecting this solution to repeated freeze-thaw cycles at −80° C. and then sonicated on ice for 30 s.
Exposure to cell lysate alone was confirmed as not responsible for the observed Ca^2+ dynamics. Cells were dosed with a solution of cell lysate immediately following microtsunami exposure. In addition, cells were exposed to cell lysate alone. As positive controls, the Ca^2+ signaling response produced by ATP was measured with and without microtsunami exposure. As a negative control, Ca^2+ signaling without cell lysate, ATP, or microtsunami exposure was measured.
Probability of Ca2+ signaling produced by microtsunami exposure is plotted as a function of distance from the site of laser microbeam irradiation. Two control experiments were conducted to test whether the observed Ca^2+ was due to cellular exposure to cell lysate produced by the microtsunami. In the first, 150 μL of cell lysate was administered following a Ca^2+ signaling event generated by microtsunami exposure. […] Both experiments elicited an average signaling probability of <1%. […] The reduced ATP signaling probability following microtsunami exposure was due to cell lysis/necrosis produced by the microtsunami.

SMILES	effect on microtsunami-induced Ca2+ signaling in Ca2+ containing media (HUVECs [1])	effect on microtsunami-induced Ca2+ signaling in Ca2+ free media (HUVECs [1])	inhibition of Ca2+ release following stimulation using a bolus of ATP [2]	average Ca2+ signaling probability, substance given following microtsunami exposure (HUVECs [3]; administered after microtsunami, ATP 50 μM, cell lysate 150 μL)	average Ca2+ signaling probability, substance given without microtsunami exposure (HUVECs [3]; no microtsunami, ATP 50 μM)	Ca2+ signaling response (in words) (HUVECs [3]; with and without microtsunami exposure)
CC(C)(C)n1nc(-c2ccc(Cl)cc2)c2c(N)ncnc21 [PP2]	significant microtsunami-induced mechanosignaling was observed	neither PP2 nor Verapamil (FIG. 9D, columns 4, 5) affected Ca^2+ signaling	–	–	–	–
NCCOB(c1ccccc1)c1ccccc1 [2-APB, 2-Aminoethoxydiphenylborate]	suppression of signaling	dose-dependent inhibitory effect	dose-dependent inhibition of Ca^2+ release	–	–	–
Nc1ncnc2c1ncn2[C@@H]1O[C@H](COP(=O)(O)OP(=O)(O)OP(=O)(O)O)[C@@H](O)[C@H]1O [ATP]	–	–	–	60%	> 90%	strong Ca^2+ signaling response
